Legend:
Mouse pharmacokinetics = assay type: in vivo; settings: CD-1 mice, 5 mg/kg, P.O.
Procedure: Test compound was intravenously (IV) or orally (PO) administrated to CD-1 mice. Blood samples were collected at different time points as indicated below. The concentration of the compounds in the mouse plasma was determined by LC-MS/MS and related parameters were calculated. The details are as follows: the required amount of the test product was taken to prepare a solution of the required concentration for intravenous injection or oral administration. The age of the animals was about 6-8 weeks at the beginning of the dosing experiment. Blood sampling time points are 0.083 h, 0.25 h, 0.5 h, 1 h, 2 h, 4 h, 8 h and 24 h after compound administration. The Phoenix WinNonlin 7.0 software was used to calculate the pharmacokinetic parameters through the blood drug concentration data at different time points.

JAK1 [1] = target: T1, JAK1 (Homo sapiens, UniProt P23458); assay: Human whole blood JAK1 activity assay: IL-6-induced STAT1 phosphorylation (CD4+ T cells); assay type: cell-based; design: endogenous in cells; settings: IL-6 (100 ng/mL), read-out: IC50_JAK1 (IL6/pSTAT1)
T1 sequence (P23458 whole entry): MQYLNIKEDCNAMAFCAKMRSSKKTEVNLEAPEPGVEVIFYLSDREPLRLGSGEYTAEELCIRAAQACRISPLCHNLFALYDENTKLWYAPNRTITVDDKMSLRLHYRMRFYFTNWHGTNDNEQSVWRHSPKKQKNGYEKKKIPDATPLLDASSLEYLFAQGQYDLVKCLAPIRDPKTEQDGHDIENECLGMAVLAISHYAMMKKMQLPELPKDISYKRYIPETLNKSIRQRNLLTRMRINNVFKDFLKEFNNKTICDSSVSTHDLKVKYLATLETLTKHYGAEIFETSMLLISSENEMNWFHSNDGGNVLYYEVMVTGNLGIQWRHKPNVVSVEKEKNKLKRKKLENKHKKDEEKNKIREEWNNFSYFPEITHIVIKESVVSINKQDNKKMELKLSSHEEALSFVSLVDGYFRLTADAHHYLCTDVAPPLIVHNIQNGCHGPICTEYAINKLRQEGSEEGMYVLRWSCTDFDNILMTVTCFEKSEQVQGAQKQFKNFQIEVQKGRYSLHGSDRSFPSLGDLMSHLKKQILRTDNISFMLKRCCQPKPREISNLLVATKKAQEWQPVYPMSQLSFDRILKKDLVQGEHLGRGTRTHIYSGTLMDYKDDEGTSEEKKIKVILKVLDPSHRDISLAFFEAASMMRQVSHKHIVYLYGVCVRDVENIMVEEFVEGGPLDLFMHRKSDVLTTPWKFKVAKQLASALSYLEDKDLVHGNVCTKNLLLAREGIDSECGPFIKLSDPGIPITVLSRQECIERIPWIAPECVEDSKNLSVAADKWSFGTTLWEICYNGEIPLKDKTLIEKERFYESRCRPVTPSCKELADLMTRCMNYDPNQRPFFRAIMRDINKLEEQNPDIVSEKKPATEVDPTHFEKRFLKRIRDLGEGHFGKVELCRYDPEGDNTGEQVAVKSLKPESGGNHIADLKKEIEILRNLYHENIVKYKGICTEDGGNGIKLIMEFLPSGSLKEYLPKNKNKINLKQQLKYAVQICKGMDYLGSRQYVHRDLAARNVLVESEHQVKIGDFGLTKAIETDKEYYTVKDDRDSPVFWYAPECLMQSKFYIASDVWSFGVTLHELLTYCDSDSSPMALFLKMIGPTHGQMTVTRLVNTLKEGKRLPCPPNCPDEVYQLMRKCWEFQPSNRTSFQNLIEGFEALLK
Procedure: (§1) Compound inhibition of JAK1 and JAK2 activities was measured in human whole blood: inhibition of IL-6-induced STAT1 phosphorylation (CD4+ T cells) and GM-CSF-induced STAT5 phosphorylation (CD33+ cells) in human whole blood were respectively analysized. The experimental procedures are shown as follows:
(§2) 1) Human whole blood was collected into heparinized tubes, and seeded in a 96-well plate at 100 µL/well, and incubated in a cell incubator for 15 minutes.
(§3) 2) Different concentrations of compounds (25 μL/well) were added into desired wells and incubated at 37° C. under 5% CO2 for 30 minutes. The final concentration of DMSO was 0.2%.
(§4) 3) Blood cells were stimulated with recombinant human IL-6 (100 ng/mL) or recombinant human GM-CSF (20 ng/mL) or PBS at 37° C. and 5% CO2 for 20 minutes.
(§5) 4) The blood was treated with pre-warmed 1× Lysis/Fixing Buffer (BD Phosflow) at 37° C. for 10 minutes to lyse erythrocytes and fix leukocytes.
(§6) 5) After the cells were permeabilized with pre-cooled buffer (Perm buffer III) on ice for 60 minutes, anti-pSTAT1 and anti-CD4 antibodies (IL-6 stimulated samples) or anti-pSTAT5 and anti-CD33 antibodies (GM-CSF stimulated samples) were used to stain the samples at 4° C. for 60 minutes.
(§7) 7) The cells were washed twice and resuspended in buffer for FACS analysis (Thermo Attune NxT).

JAK2 [2] = target: T2, JAK2 (Homo sapiens, UniProt O60674); assay: Human whole blood JAK2 activity assay: GM-CSF-induced STAT5 phosphorylation (CD33+ cells); assay type: cell-based; design: endogenous in cells; settings: GM-CSF (20 ng/mL), read-out: IC50_JAK2 (GM-CSF/pSTAT5)
T2 sequence (O60674 whole entry): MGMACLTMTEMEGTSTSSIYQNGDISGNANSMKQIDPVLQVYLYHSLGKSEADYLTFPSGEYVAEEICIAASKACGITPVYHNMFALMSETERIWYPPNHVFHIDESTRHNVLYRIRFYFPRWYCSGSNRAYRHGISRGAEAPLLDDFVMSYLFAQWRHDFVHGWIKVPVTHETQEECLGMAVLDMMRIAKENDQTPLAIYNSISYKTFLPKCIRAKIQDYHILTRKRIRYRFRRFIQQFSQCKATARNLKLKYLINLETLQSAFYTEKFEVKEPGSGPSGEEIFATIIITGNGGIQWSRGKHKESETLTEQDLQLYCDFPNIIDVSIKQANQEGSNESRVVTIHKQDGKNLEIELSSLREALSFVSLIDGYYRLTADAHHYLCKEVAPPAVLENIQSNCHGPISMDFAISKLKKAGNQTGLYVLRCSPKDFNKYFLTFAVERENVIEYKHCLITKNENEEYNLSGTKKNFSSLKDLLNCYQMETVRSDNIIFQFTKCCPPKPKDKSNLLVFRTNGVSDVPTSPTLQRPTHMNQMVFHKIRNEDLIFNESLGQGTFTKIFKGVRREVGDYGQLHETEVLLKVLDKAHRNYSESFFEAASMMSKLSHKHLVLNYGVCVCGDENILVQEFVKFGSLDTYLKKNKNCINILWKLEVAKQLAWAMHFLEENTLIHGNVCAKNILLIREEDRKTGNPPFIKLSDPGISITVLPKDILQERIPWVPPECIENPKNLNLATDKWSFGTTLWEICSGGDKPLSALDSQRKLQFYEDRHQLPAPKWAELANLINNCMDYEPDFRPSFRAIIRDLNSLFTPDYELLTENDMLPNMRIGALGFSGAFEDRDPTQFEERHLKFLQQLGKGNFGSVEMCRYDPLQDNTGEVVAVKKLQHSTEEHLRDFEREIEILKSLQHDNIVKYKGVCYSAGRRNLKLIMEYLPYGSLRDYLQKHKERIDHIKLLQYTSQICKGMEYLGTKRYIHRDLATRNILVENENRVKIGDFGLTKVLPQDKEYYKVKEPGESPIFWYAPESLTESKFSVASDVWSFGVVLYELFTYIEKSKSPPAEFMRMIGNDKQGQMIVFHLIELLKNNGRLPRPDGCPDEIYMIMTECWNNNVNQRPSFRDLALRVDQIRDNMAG
Procedure: as §1, §2, §3, §4, §5, §6, §7

JAK1 [3] = target: T1, JAK1; assay: In vitro JAK1 kinase activity assay (HTRF kinEASE TK); assay type: biochemical; design: purchased Thermo Fisher; settings: 1.1 μM ATP, 60 minutes, room temperature; read-out: IC50 JAK1 (enzyme activity assay)
Outline: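 HTRF TK assay: 0.5 ng/μl JAK1, 1 μM biotinylated TK peptide, 1.1 μM ATP with MgCl2, MnCl2, DTT, 60 min at room temperature; compounds 10 μM to 0.04 nM, 1% DMSO. Overnight detection with SA-XL665 and TK-antibody; 665/620 ratio to % inhibition, IC50 by 4-parameter fit.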

JAK1 [4] = target: T1, JAK1; assay: Cellular JAK1 activity assay: IL-6-stimulated STAT3 phosphorylation in TF-1 cells; assay type: cell-based; design: endogenous in cells; host or cells: TF-1 cells (ATCC); settings: IL-6 (30 ng/mL), pSTAT3, read-out: IC50 Cell JAK1
JAK2 [5] = target: T2, JAK2; assay: Cellular JAK2 activity assay: EPO-stimulated STAT5 phosphorylation in TF-1 cells; assay type: cell-based; design: endogenous in cells; host or cells: TF-1 cells (ATCC); settings: EPO (10 U/mL), pSTAT5, read-out: IC50 Cell JAK2

F (Mouse pharmacokinetics): 106%
Cmax (Mouse pharmacokinetics; mouse, po, plasma): 1060 ng/mL
half-life (Mouse pharmacokinetics; mouse, po, plasma): 3.79 h
AUC(0-t) (Mouse pharmacokinetics; mouse, po, plasma, read-out: AUC0-24 hr): 10200 ng·h/mL
IC50 (JAK1 [1]): < 500 nM
IC50 (JAK2 [2]): > 20000 nM
IC50 (JAK1 [3]): < 5 nM
IC50 (JAK1 [4]): < 100 nM
IC50 (JAK2 [5]): < 10000 nM
Structure (SMILES): CC[C@H](C(=O)Nc1nccc2c(-c3nc(Nc4cn(C)nc4OC)ncc3C)c[nH]c12)N1CCN(C)CC1 [Example 4, (R)—N-(3-(2-((3-Methoxy-1-methyl-1H-pyrazol-4-yl)amino)-5-methylpyrimidin-4-yl)-1H-pyrrolo[2,3-c]pyridin-7-yl)-2-(4-methylpiperazin-1-yl)butanamide]

Reference: patent US12234232B2, “Aromatic heterocyclic compound with kinase inhibitory activity” (SHANGHAI ENNOVABIO PHARMACEUTICALS CO., LTD., priority 2018, dated 2025)
